Where “and” joins values, the source holds several entries; their conditions need not be identical. Identical values can stand only once. Toxic doses and inconclusive results are not listed.
System: B6C3F1 mice, B16 melanoma ip, median survival T/C
Test: NCI In Vivo Anticancer Drug Screen. Data for tumor model B16 Melanoma (intraperitoneal) in B6C3F1 mice
Conditions: endpoint: median survival time, higher = longer survival
Outline: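 Transplantable tumor in mice; treated vs vehicle control groups; survival or tumor size measured; value = T/C ratio.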

[1] = dose: 12.5 mg/kg/injection, schedule: Q01DX009 (ip), vehicle: saline with Tween-80
[2] = dose: 25.0 mg/kg/injection, schedule: Q01DX009 (ip), vehicle: saline with Tween-80
[3] = dose: 50.0 mg/kg/injection, schedule: Q01DX009 (ip), vehicle: saline with Tween-80
[4] = dose: 100.0 mg/kg/injection, schedule: Q01DX009 (ip), vehicle: saline with Tween-80

C=C(C)/C([O-])=N/[N+](C)(C)CC(O)CCCCCCCCCCCC (stereo unspecified)
T/C (dose: 25.0 mg/kg/injection, schedule: Q01DX001 (ip), vehicle: saline): 109 % of control | T/C (dose: 50.0 mg/kg/injection, schedule: Q01DX001 (ip), vehicle: saline): 114 % of control and 116 % of control | T/C (dose: 100.0 mg/kg/injection, schedule: Q01DX001 (ip), vehicle: saline): 114 % of control and 90 % of control | T/C (dose: 200.0 mg/kg/injection, schedule: Q01DX001 (ip), vehicle: saline): 86 % of control

Cc1ccc(Cl)c2ccccc12
T/C [1]: 101 % of control and 104 % of control | T/C [2]: 100 % of control and 101 % of control and 104 % of control | T/C [3]: 101 % of control and 105 % of control and 107 % of control | T/C [4]: 94 % of control and 98 % of control | T/C (dose: 200.0 mg/kg/injection, schedule: Q01DX009 (ip), vehicle: saline with Tween-80): 94 % of control

COc1cc2c(c(OC)c1O)-c1ccc(SC)c(=O)cc1C(NC(C)=O)CC2 (stereo unspecified)
T/C (dose: 2.5 mg/kg/injection, schedule: Q01DX009 (ip), vehicle: water): 119 % of control | T/C (dose: 5.0 mg/kg/injection, schedule: Q01DX009 (ip), vehicle: water): 119 % of control | T/C (dose: 10.0 mg/kg/injection, schedule: Q01DX009 (ip), vehicle: water): 116 % of control | T/C (dose: 20.0 mg/kg/injection, schedule: Q01DX009 (ip), vehicle: water): 119 % of control | T/C (dose: 40.0 mg/kg/injection, schedule: Q01DX009 (ip), vehicle: water): 122 % of control

CCCC(=O)O
T/C (dose: 12.5 mg/kg/injection, schedule: Q01DX009 (ip), vehicle: saline): 100 % of control | T/C (dose: 25.0 mg/kg/injection, schedule: Q01DX009 (ip), vehicle: saline): 96 % of control | T/C (dose: 50.0 mg/kg/injection, schedule: Q01DX009 (ip), vehicle: saline): 93 % of control | T/C (dose: 100.0 mg/kg/injection, schedule: Q01DX009 (ip), vehicle: saline): 98 % of control | T/C (dose: 200.0 mg/kg/injection, schedule: Q01DX009 (ip), vehicle: saline): 93 % of control

N#Cc1nc(C#N)c(Sc2ccccc2)c(Sc2ccccc2)c1Sc1ccccc1
T/C (dose: 3.12 mg/kg/injection, schedule: Q01DX009 (ip), vehicle: saline with Tween-80): 104 % of control | T/C (dose: 3.13 mg/kg/injection, schedule: Q01DX009 (ip), vehicle: saline with Tween-80): 101 % of control | T/C (dose: 6.25 mg/kg/injection, schedule: Q01DX009 (ip), vehicle: saline with Tween-80): 98 % of control and 102 % of control | T/C [1]: 93 % of control and 94 % of control | T/C [2]: 101 % of control | T/C [3]: 97 % of control and 98 % of control | T/C [4]: 101 % of control and 104 % of control

CNC(=O)OCc1c(COC(=O)NC)c(-c2ccc(Cl)c(Cl)c2)n2c1Cc1ccccc1C2
T/C (dose: 25.0 mg/kg/injection, schedule: Q01DX009 (ip), vehicle: distilled water + Tween-80): 165 % of control | T/C (dose: 50.0 mg/kg/injection, schedule: Q01DX009 (ip), vehicle: distilled water + Tween-80): 194 % of control and 203 % of control | T/C (dose: 100.0 mg/kg/injection, schedule: Q01DX009 (ip), vehicle: distilled water + Tween-80): 92 % of control

O=C1c2ccccc2CCC1(Br)Br
T/C (dose: 2.5 mg/kg/injection, schedule: Q01DX009 (ip), vehicle: Klucel (hydroxypropylcellulose) (HPC)): 107 % of control | T/C (dose: 10.0 mg/kg/injection, schedule: Q01DX009 (ip), vehicle: Klucel (hydroxypropylcellulose) (HPC)): 90 % of control

C=C1C(=O)O[C@@H]2C[C@@H](C)[C@@H]3C=CC(=O)[C@@]3(C)[C@@H](OC(=O)CC(=O)O[C@H]3[C@@H]4C(=C)C(=O)O[C@@H]4C[C@@H](C)[C@@H]4C=CC(=O)[C@]43C)[C@H]12
T/C (dose: 0.25 mg/kg/injection, schedule: Q01DX009 (ip), vehicle: saline with Tween-80): 88 % of control | T/C (dose: 0.5 mg/kg/injection, schedule: Q01DX009 (ip), vehicle: saline with Tween-80): 96 % of control | T/C (dose: 1.0 mg/kg/injection, schedule: Q01DX009 (ip), vehicle: saline with Tween-80): 102 % of control | T/C (dose: 2.0 mg/kg/injection, schedule: Q01DX009 (ip), vehicle: saline with Tween-80): 110 % of control | T/C (dose: 4.0 mg/kg/injection, schedule: Q01DX009 (ip), vehicle: saline with Tween-80): 116 % of control

Source: PubChem BioAssay AID200 (DTP/NCI, 2004)
